Like-named read-outs stand apart in the source and are kept apart here.
Legend:
[1] = test system: L. infantum promastigotes; experiment: Anti-Leishmania activity, resazurin-based assay; format: cell-based; settings: 72 h incubation, resazurin, highest concentration tested 40 µM, 95% CI in parentheses, read-out: Anti-Parasitic Activity IC50 (µM) 95% CI, L. infantum Promastigotes
Protocol: Promastigotes from the L. infantum strain (MHOM/MA/67/ITMAP-263) were grown in 5-mL T25 flasks in Schneider’s insect medium supplemented with 10% heat-inactivated fetal bovine serum (FBS), 200 U/mL penicillin/streptomycin, 6 µg/mL Phenol Red, and 5 mM HEPES. The cultures were maintained in an incubator at 27 °C and diluted to 2 × 10^5/mL every 5 days. For the assays, the parasites used were equivalent to late/log with 2 or 3 days of culture.
The compounds’ efficacy against L. infantum promastigotes was evaluated using a resazurin-based assay. Parasites were added to 100 µL of serial dilutions of compounds in supplemented complete medium at a cell density of 5 × 10^5/mL. As a quality control, a dose–response curve to the antileishmanial drug miltefosine was included in all the assays. The final volume of the assay was 200 µL/well. Each condition was carried out in duplicate. Following 72 h of incubation at the specific conditions for parasites, 20 µL of a 0.5 mM resazurin solution was added, and the plates were incubated for a further 4 h under the same conditions. Fluorescence was measured at 544 nm and 590 nm excitation and emission wavelengths, respectively, using a Synergy 2 Multi-Mode Reader (Biotek, Winooski, VT, USA). Results are shown as % of parasite growth inhibition compared to control (untreated parasites) and represent the average of at least three independent experiments. The effect was evaluated by the determination of the IC50 value (concentration required to inhibit growth in 50%) and was calculated by non-linear regression curves using GraphPad Prism software, version 8.1.1 for Windows (GraphPad Software, San Diego, CA, USA).

[2] = Cytotoxicity MTT assay on PMA-differentiated THP-1 macrophages; format: cell-based; settings: human
Protocol: A human leukemia cell line, THP-1 (ATCC® TIB-202™), was cultured in RPMI-1640 medium supplemented with 10% heat-inactivated fetal bovine serum (FBS), 2 mM L-glutamine, 100 IU/mL penicillin/streptomycin, and 20 mM HEPES. The cell line was maintained in a humidified incubator at 37 °C and 5% CO2 by subculture every 3 days in 20 mL of media at a concentration of 2 × 10^5/mL in a T75 flask. All cell culture reagents were purchased from Lonza-Bioscience (Morrisville, NC, USA).
The cytotoxicity effect of compounds on THP-1-derived macrophages was assessed by colorimetric MTT assay (3-(4,5-dimethylthiazol-2-yl)-2,5-diphenyl tetrazolium bromide). Briefly, THP-1 cells were suspended in RPMI complete medium at a density of 1 × 10^6 cells/mL and 100 μL/well and were seeded in a 96-well plate and differentiated into macrophages by addition of 40 ng/mL of phorbol-myristate 13-acetate (PMA, Sigma, Saint Louis, MI, USA) for 24 h, followed by replacement with fresh medium for 24 more h. Subsequently, the cells were incubated with 100 μL of compounds ranging from 100 to 12.5 μM after dilution in the RPMI complete medium. Each condition was carried out in quadruplicate. After 72 h of incubation at 37 °C and 5% CO2, the medium was removed, and 200 μL of 0.5 mg/mL MTT solution diluted in RPMI was added. The plates were incubated for an additional 4 h. Then, 160 μL of media was removed, and the same volume of 2-propanol was added. Absorbance was read at 570 nm using a Synergy 2 Multi-Mode Reader (Biotek, Winooski, VT, USA). Cytotoxicity was evaluated by the determination of the CC50 value (drug concentration that reduced the percentage of viable cells by 50%) and calculated by non-linear regression analysis using GraphPad Prism software, version 8.1.1 for Windows (GraphPad Software, San Diego, CA, USA). The results represent the average of at least three independent experiments. For each compound, the selectivity index (SI) was calculated as the ratio between cytotoxicity in THP-1 (CC50, 72 h) and activity against parasites (IC50, 72 h).

[3] = test system: T. brucei Lister 427 bloodstream forms; experiment: Anti-T. brucei activity, resazurin-based assay on bloodstream forms; format: cell-based, Trypanosoma brucei; settings: Trypanosoma brucei; bloodstream forms, 72 h incubation, resazurin; read-out: Anti-Parasitic Activity IC50 (µM) 95% CI, T. brucei
Protocol: T. brucei Lister 427 bloodstream forms were grown in a humidified incubator at 37 °C and 5% CO2 in complete HMI-9 medium supplemented with 10% heat-inactivated fetal bovine serum (FBS) and 100 UI/mL penicillin/streptomycin. Parasite maintenance was performed in T25 ventilated flasks by subpassage at a concentration of 1 × 10^4/mL every 2 days in T25 ventilated flasks. Luciferase-expressing L. infantum (MHOM/MA/67/ITMAP-263) axenic amastigotes expressing episomal luciferase were maintained in MAA20 [31] at 37 °C in a 5% CO2 environment with subculture every 7 days at 1 × 10^6/mL in 5-mL T25 ventilated flasks.
The compounds’ efficacy against bloodstream-stage trypomastigotes was evaluated using a resazurin-based assay. Parasites were added to 100 µL of serial dilutions of compounds in supplemented complete medium at a cell density of 5 × 10^3/mL. As a quality control, a dose–response curve for the antitrypanosomal pentamidine was included in all the assays. The final volume of the assay was 200 µL/well. Each condition was carried out in duplicate. Following 72 h of incubation at the specific conditions for parasites, 20 […] of a 0.5 mM resazurin solution was added, and the plates were incubated for a further 4 h under the same conditions. Fluorescence was measured at 544 nm and 590 nm excitation and emission wavelength, respectively, using a Synergy 2 Multi-Mode Reader (Biotek, Winooski, VT, USA). The results are shown as % of parasite growth inhibition compared to control (untreated parasites) and represent the average of at least three independent experiments. The effect was evaluated by the determination of the IC50 value (concentration required to inhibit growth in 50%) and calculated by non-linear regression curves using GraphPad Prism software, version 8.1.1 for Windows (GraphPad Software, San Diego, CA, USA).

Row | SMILES | IC50 [1] [µM] | CC50 at 72 h ([2]; PMA-differentiated THP-1 macrophages, 72 h, MTT, 100 to 12.5 µM tested, read-out: Cytotoxicity CC50 (µM) 95% CI, THP-1) [µM] | IC50 [3] [µM] | CC50 at 72 h [2] [µM]
1 | CCCCCCCCCCCCCCCCOP(=O)([O-])OCC[N+](C)(C)C [Miltefosine, miltefosine, reference compound] | 11 | 29.4 |  | 
2 | N=C(N)c1ccc(OCCCCCOc2ccc(C(=N)N)cc2)cc1 [Pentamidine, pentamidine, reference compound] |  |  | 0.0056 | 37.7

Reference: article PMC10671849, “Synthesis and Evaluation of Marine-Inspired Compounds Result in Hybrids with Antitrypanosomal and Antileishmanial Activities” (Marine Drugs, 2023)
